Results taken from publication PMC12656565, “In Vitro and Ultrastructural Evaluation of the Cytotoxic and Antileishmanial Activities of Thiosemicarbazone Compounds Against Promastigotes and Axenic Amastigotes of Leishmania infantum” (Tropical Medicine and Infectious Disease, 2025).

Legend:
[1] = tested on: Leishmania infantum promastigote forms (MHOM/BR/BH46); assay: In vitro leishmanicidal activity against promastigotes (Neubauer chamber counting); assay type: cell-based; settings: for SI (CC50/IC50): CC50 J774 macrophages / IC50 promastigotes; for IC50 / inhibition at 20 µM: Leishmania infantum; for IC50: 72 h, L. infantum promastigotes, linear regression; for inhibition at 20 µM: lowest concentration tested in the promastigote series (20–400 µM)
Description: For this study, the Leishmania infantum strain MHOM/BR/BH46 was used. It was maintained by cryopreservation in liquid nitrogen, using a preservation solution containing 10% dimethyl sulfoxide (DMSO) and 90% fetal bovine serum (FBS). For the experiments, the strain was reactivated and maintained in continuous culture in modified Schneider’s Drosophila medium, supplemented with 10% heat-inactivated fetal bovine serum (FBS), at a temperature of 26 °C, with subcultures performed every 72 h. The promastigote form was used for the in vitro assays, with growth observed and monitored through parasite counting using a Neubauer chamber (iNCYTO CChip DHC-N01, Cheonan-Si, Republic of Korea).
The in vitro leishmanicidal activity of compounds LT-70, LT-73, LT-75, LT-89, and amphotericin B was determined as described by Aliança et al., with adaptations. Promastigote forms of L. infantum (MHOM/BR/BH46) were maintained in Schneider’s medium supplemented with 10% fetal bovine serum (FBS), incubated at 26 °C. For experiments, parasites were subcultured and grown for 72 h until reaching stationary phase. Subsequently, they were adjusted to a concentration of 1 × 10^6 parasites/mL. Cultures were then incubated in the presence of the tested compounds (20–400 µM) and Amphotericin B was tested from 0.01 to 1.0 µM in preliminary range-finding assays, confirming an IC50 of 0.04 µM, both prepared in DMSO (final DMSO concentration < 1%), as well as a control containing only the diluent. Analyses were performed in technical triplicate and biological duplicate. Cultures were maintained at 26 °C for 72 h, with daily parasite counts performed using a Neubauer chamber. The median inhibitory concentration (IC50) was determined after 72 h by linear regression using SPSS 25.0 software for Mac. All assays were performed in 24-well flat-bottom plates (2 mL final volume per well), with parasite inoculum verified by Neubauer counting chamber. The compounds LT-73 and LT-75 were selected based on their best leishmanicidal performance and respective selectivity index (SI), calculated as the ratio between the cytotoxic concentration for 50% of host cells (CC50) and the IC50 obtained for parasites. […] IC50 and CC50 values were obtained by linear regression using […]. This method has been validated in our previous thiosemicarbazone publications. Each assay was conducted in triplicate across two independent biological experiments performed on separate days to ensure reproducibility and minimize batch effects. MTT was selected for consistency with the validated thiosemicarbazone protocol by Jacob et al., ensuring methodological coherence with prior data.

[2] = tested on: peritoneal macrophages; parameters: method as in ref [23] Queiroz et al.; settings: ref [23] Queiroz et al.; cited from earlier work
[3] = tested on: J774 macrophages and Vero cells; parameters: method as in ref [21] Aliança et al.; settings: ref [21] Aliança et al.; cited from earlier work
[4] = tested on: J774.A1 macrophages; assay: Cytokine dosage (CBA) in supernatants of uninfected macrophages; assay type: cell-based, Mouse; settings: 1× and 2× CC50, 72 h
Description: J774.A1 macrophage lineage cells were cultured in 96-well polystyrene plates containing DMEM medium supplemented with 10% FBS. Cells were incubated with the following concentrations: 1× CC50 and 2× CC50 of compounds LT-73 and LT-75 and amphotericin B, as well as 1% DMSO diluent solution as control, for 72 h. The cells used in these assays were not infected with Leishmania infantum, allowing the evaluation of cytokine modulation and cytotoxicity in uninfected macrophages. After cultivation, 100 µL of culture supernatants were collected and immediately stored at −20 °C for later use in CBA assays (Cytometric Bead Array-BD Biosciences, BD Biosciences, San Jose, CA, USA). This assay utilized a mixture of […] polystyrene beads with different fluorescence intensities, coated with specific antibodies for quantification of cytokines IFN-γ, TNF, IL-10, IL-6, IL-4, IL-2, and IL-17a present in sample supernatants. Cytokine levels were quantified using the BD Cytometric Bead Array (CBA) Mouse Th1/Th2/Th17 kit (Cat. No. 560485, BD Biosciences, San Jose, CA, USA) and analyzed on a BD FACSCalibur™ Flow Cytometer with BD CellQuest PRO Software (BD Biosciences; version 5.1 by the facility). Results are expressed in pg/mL based on standard curves provided by the manufacturer.

| SMILES | SI (CC50/IC50) [1] | IC50 [1] [µM] | inhibition at 20 µM [1] [%] | cytotoxicity [2] [µM] | cytotoxicity [3] [µM] | IFN-γ production [4] | IL-6 secretion [4] |
| --- | --- | --- | --- | --- | --- | --- | --- |
| C[C@@H]1[C@H](O)[C@@H](C)/C=C/C=C/C=C/C=C/C=C/C=C/C=C/[C@H](O[C@@H]2O[C@H](C)[C@@H](O)[C@H](N)[C@@H]2O)C[C@@H]2O[C@](O)(C[C@@H](O)C[C@@H](O)[C@H](O)CC[C@@H](O)C[C@@H](O)CC(=O)O[C@H]1C)C[C@H](O)[C@H]2C(=O)O [Amphotericin B, reference compound] | 350 | 0.04 | 100 | 74.86 | 74.7 |  |  |
| S=C(N/N=C/c1c[nH]c2ncccc12)Nc1ccccc1 [LT-73] | >5.8 | 10 to 14 | 100 |  |  | no cytokine production was observed | IL-6 production was observed only at the CC50 concentration |
| N#Cc1ccc2[nH]cc(/C=N/NC(=S)Nc3ccc(Cl)cc3)c2c1 [LT-75] | >7.1 | 10 to 14 | 100 |  |  | induced the production of the cytokine IFN-γ | discrete elevation detected at 1× LT-75 |
